In brackets after ≈: the same amount, converted by molar mass.
Columns and labels:
ErbB4 = ErbB4 (Homo sapiens, UniProt Q15303); assay: ELISA-based erbB kinase assay (ErbB4); type: biochemical; details: GST-erbB4 cytoplasmic fusion protein, 20 uM ATP, poly-Glu-Tyr substrate
Text: (§1) ErbB1, erbB2 and erbB4 cytoplasmic fusion proteins were made by cloning the erbB1 sequence (Met-668 to Ala1211), erbB2 (Ile-675 to Val-1256) and erbB4 sequence (Gly-259 to Gly-690) into the baculoviral vector pFastBac using Polymerase Chain Reaction (PCR). Proteins were expressed in Baculovirus-infected Sf9 insect cells as Glutathione S-Transferase (GST) fusion proteins. The proteins were purified by affinity chromatography using glutathione sepharose beads.
(§2) Inhibition of erbB tyrosine kinase activity was assessed using an ELISA-based receptor tyrosine kinase assay. Kinase reactions (50 mM HEPES, pH 7.4, 125 mM NaCl, 10 mM MgCl2, 100 μM sodium orthovanadate, 2 mM dithiothreitol, 20 uM ATP, test compound or vehicle control and 1-5 nM GST-erbB per 50 uL reaction) were run in 96-well plates coated with 0.25 mg/ml poly-Glu-Tyr (Sigma). The reactions were incubated for 6 minutes at room temperature while shaking. Kinase reactions were stopped by removal of reaction mixture, then wells were washed with wash buffer comprising 3% Bovine Serum Albumin and 0.1% Tween 20 in Phosphate Buffered Saline (PBS). Phosphorylated tyrosine residues were detected by adding 0.2 μg/ml anti-phosphotyrosine antibody (Oncogene Ab-4; 50 μL/well) coupled to Horse Radish Peroxidase (HRP) for 25 minutes while shaking at room temperature. The antibody was removed, and plates were washed (3% BSA and 0.1% Tween 20 in PBS). HRP substrate 3,3′,5,5′-tetramethylbenzidene (SureBlueTMB, Kirkegaard & Perry Labs) was added (50 μL per well) and incubated for 10-20 minutes while shaking at room temperature. The TMB reaction was stopped with the addition of 50 μL stop solution (0.09 N H2SO4). The signal was quantified by measuring absorbance at 450 nm. IC50 values were determined for test compounds using Microsoft Excel.

ErbB1 = ErbB1 (Homo sapiens (Human), UniProt P00533); assay: ELISA-based erbB kinase assay (ErbB1); type: biochemical; details: GST-erbB1 cytoplasmic fusion protein, 20 uM ATP, poly-Glu-Tyr substrate
Text: as §1, §2

Aqueous solubility = type: physicochemical
ErbB2 = ErbB2 (Homo sapiens (Human), UniProt P04626); assay: ELISA-based erbB kinase assay (ErbB2); type: biochemical; details: GST-erbB2 cytoplasmic fusion protein, 20 uM ATP, poly-Glu-Tyr substrate
Text: as §1, §2

Sequence of ErbB2 (P04626 675-1255 limits assumed): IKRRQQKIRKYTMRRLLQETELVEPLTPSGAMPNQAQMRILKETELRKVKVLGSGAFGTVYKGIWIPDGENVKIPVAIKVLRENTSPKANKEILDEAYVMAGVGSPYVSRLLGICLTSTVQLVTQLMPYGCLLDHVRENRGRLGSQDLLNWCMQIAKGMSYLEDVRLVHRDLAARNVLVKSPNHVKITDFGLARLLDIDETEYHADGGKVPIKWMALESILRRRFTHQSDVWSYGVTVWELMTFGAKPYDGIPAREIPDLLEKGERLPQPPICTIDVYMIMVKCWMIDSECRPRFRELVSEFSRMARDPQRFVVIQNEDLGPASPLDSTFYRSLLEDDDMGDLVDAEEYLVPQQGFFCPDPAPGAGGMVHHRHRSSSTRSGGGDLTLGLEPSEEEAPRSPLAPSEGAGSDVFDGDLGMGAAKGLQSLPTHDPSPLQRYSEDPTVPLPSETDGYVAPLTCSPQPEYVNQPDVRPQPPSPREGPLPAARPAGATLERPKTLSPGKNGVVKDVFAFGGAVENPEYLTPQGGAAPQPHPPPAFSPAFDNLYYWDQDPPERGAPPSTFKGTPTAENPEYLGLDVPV
Sequence of ErbB1 (P00533 668-1210 limits assumed): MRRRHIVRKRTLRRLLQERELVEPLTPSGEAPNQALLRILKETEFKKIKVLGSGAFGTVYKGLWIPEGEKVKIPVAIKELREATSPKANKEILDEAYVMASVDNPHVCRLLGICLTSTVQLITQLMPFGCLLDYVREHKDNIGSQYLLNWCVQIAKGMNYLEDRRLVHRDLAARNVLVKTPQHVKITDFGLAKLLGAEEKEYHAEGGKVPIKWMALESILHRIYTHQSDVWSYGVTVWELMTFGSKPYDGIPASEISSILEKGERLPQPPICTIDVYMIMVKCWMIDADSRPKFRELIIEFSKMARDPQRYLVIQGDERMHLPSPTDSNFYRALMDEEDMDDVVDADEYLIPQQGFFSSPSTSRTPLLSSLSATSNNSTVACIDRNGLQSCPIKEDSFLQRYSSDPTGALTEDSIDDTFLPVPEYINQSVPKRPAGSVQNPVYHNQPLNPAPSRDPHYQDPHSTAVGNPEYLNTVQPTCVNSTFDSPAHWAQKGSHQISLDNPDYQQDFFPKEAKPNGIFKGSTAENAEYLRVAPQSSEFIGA
Sequence of ErbB4 (Q15303 26-1308 limits assumed): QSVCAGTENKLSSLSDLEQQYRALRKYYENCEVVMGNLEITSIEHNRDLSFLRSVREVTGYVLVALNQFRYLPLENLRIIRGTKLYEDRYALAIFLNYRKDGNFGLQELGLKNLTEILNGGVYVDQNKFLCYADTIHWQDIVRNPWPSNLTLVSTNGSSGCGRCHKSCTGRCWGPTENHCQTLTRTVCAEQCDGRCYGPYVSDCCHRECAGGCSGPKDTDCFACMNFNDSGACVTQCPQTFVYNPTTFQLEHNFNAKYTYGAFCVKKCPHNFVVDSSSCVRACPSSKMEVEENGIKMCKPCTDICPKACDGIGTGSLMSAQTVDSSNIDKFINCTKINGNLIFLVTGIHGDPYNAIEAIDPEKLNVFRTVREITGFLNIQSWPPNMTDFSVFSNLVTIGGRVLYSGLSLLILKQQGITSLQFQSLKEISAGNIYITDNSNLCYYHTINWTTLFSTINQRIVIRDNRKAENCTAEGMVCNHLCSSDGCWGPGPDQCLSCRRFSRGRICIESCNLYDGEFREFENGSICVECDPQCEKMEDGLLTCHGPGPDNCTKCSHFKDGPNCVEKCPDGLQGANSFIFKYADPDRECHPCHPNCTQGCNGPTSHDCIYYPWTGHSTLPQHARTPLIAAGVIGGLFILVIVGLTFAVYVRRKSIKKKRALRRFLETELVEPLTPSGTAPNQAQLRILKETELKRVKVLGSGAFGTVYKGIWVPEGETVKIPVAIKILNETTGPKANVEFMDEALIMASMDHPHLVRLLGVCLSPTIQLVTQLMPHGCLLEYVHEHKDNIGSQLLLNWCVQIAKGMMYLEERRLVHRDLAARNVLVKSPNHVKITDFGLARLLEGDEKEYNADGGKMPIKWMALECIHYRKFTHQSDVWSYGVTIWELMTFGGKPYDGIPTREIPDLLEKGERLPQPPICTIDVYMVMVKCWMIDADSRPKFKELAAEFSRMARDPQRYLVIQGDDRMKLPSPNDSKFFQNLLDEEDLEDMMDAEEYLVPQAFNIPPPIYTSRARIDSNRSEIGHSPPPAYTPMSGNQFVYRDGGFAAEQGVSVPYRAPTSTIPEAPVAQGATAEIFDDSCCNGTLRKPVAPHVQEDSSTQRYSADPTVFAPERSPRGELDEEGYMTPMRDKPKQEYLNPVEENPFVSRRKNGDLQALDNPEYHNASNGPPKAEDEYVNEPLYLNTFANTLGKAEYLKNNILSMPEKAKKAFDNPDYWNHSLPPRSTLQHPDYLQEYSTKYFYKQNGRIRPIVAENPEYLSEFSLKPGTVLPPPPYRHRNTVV

IC50 (ErbB4) [nM] | IC50 (ErbB1) [nM] | solubility (Aqueous solubility; aqueous medium, pH 6.3, aqueous buffer) [µg/mL] | change of aqueous solubility with pH (Aqueous solubility; at lower pHs (than 6.3)) | IC50 (ErbB2) [nM] | SMILES
77.5 | 6.44 | – | – | – | O=C(/C=C/CN1CCCCC1)Nc1cc2c(Nc3ccc(F)c(Cl)c3)ncnc2cc1OCCF [Example No. 1, 4-Piperidin-1-yl-but-2-enoic acid [4-(3-chloro-4-fluoro-phenylamino)-7-(2-fluoro-ethoxy)-quinazolin-6-yl]-amide]
– | – | ~10 (≈ 21.3 µM) | increases | – | COc1cc2ncnc(Nc3ccc(F)c(Cl)c3)c2cc1NC(=O)/C=C/CN1CCCCC1 [Example No. 2, 4-Piperidin-1-yl-but-2-enoic acid [4-(3-chloro-4-fluoro-phenylamino)-7-methoxy-quinazolin-6-yl]-amide]
154 | 9.87 | – | – | 244 | O=C(/C=C/CN1CCCCC1)Nc1cc2c(Nc3ccc(F)c(Cl)c3)ncnc2cc1OCC(F)F [Example No. 6, 4-Piperidine-1-yl-but-2-enoic acid [4-(3-chloro-4-fluoro-phenylamino)-7-(2,2-difluoro-ethoxy)-quinazolin-6-yl]-amide]
61.5 | 11.3 | – | – | – | O=C(/C=C/CN1CCCCC1)Nc1cc2c(Nc3ccc(F)c(Cl)c3)ncnc2cc1OCCCN1CCOCC1 [Example No. 7, 4-Piperidin-1-yl-but-2-enoic acid [4-(3-chloro-4-fluoro-phenylamino)-7-(3-morpholin-4-yl-propoxy)-quinazolin-6-yl]-amide]
234 | 45.3 | – | – | 212 | COc1cc2ncnc(Nc3ccc(F)c(Cl)c3)c2cc1NC(=O)/C=C/CN1CCCC(F)C1 (centres unmarked) [Example No. 8, 4-(3-Fluoro-piperidin-1-yl)-but-2-enoic acid [4-(3-chloro-4-fluoro-phenylamino)-7-methoxy-Quinazolin-6-yl]-amide]
147 | – | – | – | 247 | COc1cc2ncnc(Nc3ccc(F)c(Cl)c3)c2cc1NC(=O)/C=C/CN1CCC(F)CC1 [Example No. 9, 4-(4-Fluoro-piperidin-1-yl)-but-2-enoic acid [4-(3-chloro-4-fluoro-phenylamino)-7-methoxy-quinazolin-6-yl]-amide]
41.3 | 12.1 | – | – | 86 | COc1cc2ncnc(Nc3ccc(F)c(Cl)c3)c2cc1NC(=O)/C=C/CN1CCCCCC1 [Example No. 10, 4-Azepan-1-yl-but-2-enoic acid [4-(3-chloro-4-fluoro-phenylamino)-7-methoxy-quinazolin-6-yl]-amide]

From patent US8623883B2, “4-phenylamino-quinazolin-6-yl-amides” (Warner-Lambert Company LLC, priority 2004, dated 2014)
